What was measured:
[1] = system: cdc2 (tyrosine 15); assay: Western blot of phosphorylated cdc2 in SQ20B; format: cell-based, human; conditions: 3 μM OTX-008 for 72 h
Procedure: (§1) Cells were lysed in buffer containing 50 mM HEPES (pH 7.6), 150 mM NaCl, 1% Triton X-100, 2 mM sodium vanadate, 100 mM NaF, and 0.4 mg/ml phenylmethylsulfonyl fluoride. Equal amounts of protein (30 μg/lane) were subjected to SDS-PAGE and transferred to nitrocellulose membranes. Membranes were blocked with 5% milk in 0.05% Tween 20/phosphate-buffered saline and then incubated with the primary antibody overnight. Membranes were then washed and incubated with the secondary antibody conjugated to horseradish peroxidase. Bands were visualized by using the enhanced chemiluminescence Western blotting detection system. Densitometric analysis was performed under conditions that yielded a linear response. The following antibodies were used: anti-p-cdc2 (tyr15), anti-p-wee1 (ser642), anti-p-p44/42 MAPK (thr202/tyr204), anti-p44/42, anti-p-AKT (ser473), anti-AKT, anti-p-S6 (ser235/236) (Cell Signaling, Saint Quentin Yvelines, France), anti-p-PKCα (ser657) (BD Biosciences, Le-Pont-de-Claix, France) and anti-galectin-1 (Abcam, Cambridge, Mass., USA). All antibodies were used at a 1:1000 dilution.
(§2) To study the mechanism of OTX-008-induced inhibition of cell proliferation, the effect of OTX-008 on cell cycle in SQ20B cells was examined (FIG. 5B). […] Activation of cdc2 (cdk1) by de-phosphorylation of tyrosine 15 is required for G2/M transition. […]

[2] = system: wee1 (serine 642); assay: Western blot of phosphorylated wee1 in SQ20B; format: cell-based, human; conditions: 3 μM OTX-008 for 72 h
Procedure: as §1, §2

CN(C)CCNC(=O)COc1c2cccc1Cc1cccc(c1OCC(=O)NCCN(C)C)Cc1cccc(c1OCC(=O)NCCN(C)C)Cc1cccc(c1OCC(=O)NCCN(C)C)C2 [OTX-008]
cdc2 activity (phosphorylation on tyrosine 15) [1]: inactivated cdc2
wee1 phosphorylation on serine 642 [2]: decreased inactivating phosphorylation of wee1

From patent US20140243415A1, “COMPOUNDS INHIBITING GALECTIN-1 EXPRESSION, CANCER CELL PROLIFERATION, INVASION, AND TUMORIGENESIS” (ONCOETHIX SA, priority 2011, published 2014)
